# ChEMBL document CHEMBL1201862, “PubChem BioAssay data set” (2004)
# Active and inactive are the calls of the source.
# Tests used:
# [1] = target: T1, Sentrin-specific protease 8 (Homo sapiens, UniProt Q96LD8); experiment: SENP8 protease inhibitors, SAR follow-up, biochemical, luminescence (AID 504501); format: functional
# T1 sequence (Q96LD8 whole entry): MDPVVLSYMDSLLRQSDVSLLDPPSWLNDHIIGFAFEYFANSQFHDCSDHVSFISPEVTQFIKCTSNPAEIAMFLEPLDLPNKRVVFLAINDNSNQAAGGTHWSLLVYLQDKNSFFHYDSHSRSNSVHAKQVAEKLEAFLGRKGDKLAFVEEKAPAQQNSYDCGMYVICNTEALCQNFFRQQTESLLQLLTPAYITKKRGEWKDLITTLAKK
# Caspase-3 = target: T2, Caspase-3 (Homo sapiens, UniProt P42574); experiment: SAR Analysis of small molecule inhibitors of Sentrin-specific proteases (SENPs) using a Caspase-3 Selectivity assay. [Related pubchem assays (depositor defined):AID2540, AID2599, AID434973, AID489001]; format: functional
# T2 sequence (P42574 whole entry): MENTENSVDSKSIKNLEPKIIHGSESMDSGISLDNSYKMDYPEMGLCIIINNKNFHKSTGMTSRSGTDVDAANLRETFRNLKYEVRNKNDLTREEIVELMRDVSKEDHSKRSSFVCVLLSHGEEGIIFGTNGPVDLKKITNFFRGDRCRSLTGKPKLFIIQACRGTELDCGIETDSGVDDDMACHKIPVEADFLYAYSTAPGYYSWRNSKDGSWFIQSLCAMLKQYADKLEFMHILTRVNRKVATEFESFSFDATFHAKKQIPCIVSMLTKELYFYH
# [2] = target: T3, Sentrin-specific protease 6 (Homo sapiens, UniProt Q9GZR1); experiment: SAR Analysis of small molecule inhibitors of Sentrin-specific protease 6 (SENP6) using a Luminescent assay. [Related pubchem assays (depositor defined):AID2582, AID2599]; format: functional
# T3 sequence (Q9GZR1 whole entry): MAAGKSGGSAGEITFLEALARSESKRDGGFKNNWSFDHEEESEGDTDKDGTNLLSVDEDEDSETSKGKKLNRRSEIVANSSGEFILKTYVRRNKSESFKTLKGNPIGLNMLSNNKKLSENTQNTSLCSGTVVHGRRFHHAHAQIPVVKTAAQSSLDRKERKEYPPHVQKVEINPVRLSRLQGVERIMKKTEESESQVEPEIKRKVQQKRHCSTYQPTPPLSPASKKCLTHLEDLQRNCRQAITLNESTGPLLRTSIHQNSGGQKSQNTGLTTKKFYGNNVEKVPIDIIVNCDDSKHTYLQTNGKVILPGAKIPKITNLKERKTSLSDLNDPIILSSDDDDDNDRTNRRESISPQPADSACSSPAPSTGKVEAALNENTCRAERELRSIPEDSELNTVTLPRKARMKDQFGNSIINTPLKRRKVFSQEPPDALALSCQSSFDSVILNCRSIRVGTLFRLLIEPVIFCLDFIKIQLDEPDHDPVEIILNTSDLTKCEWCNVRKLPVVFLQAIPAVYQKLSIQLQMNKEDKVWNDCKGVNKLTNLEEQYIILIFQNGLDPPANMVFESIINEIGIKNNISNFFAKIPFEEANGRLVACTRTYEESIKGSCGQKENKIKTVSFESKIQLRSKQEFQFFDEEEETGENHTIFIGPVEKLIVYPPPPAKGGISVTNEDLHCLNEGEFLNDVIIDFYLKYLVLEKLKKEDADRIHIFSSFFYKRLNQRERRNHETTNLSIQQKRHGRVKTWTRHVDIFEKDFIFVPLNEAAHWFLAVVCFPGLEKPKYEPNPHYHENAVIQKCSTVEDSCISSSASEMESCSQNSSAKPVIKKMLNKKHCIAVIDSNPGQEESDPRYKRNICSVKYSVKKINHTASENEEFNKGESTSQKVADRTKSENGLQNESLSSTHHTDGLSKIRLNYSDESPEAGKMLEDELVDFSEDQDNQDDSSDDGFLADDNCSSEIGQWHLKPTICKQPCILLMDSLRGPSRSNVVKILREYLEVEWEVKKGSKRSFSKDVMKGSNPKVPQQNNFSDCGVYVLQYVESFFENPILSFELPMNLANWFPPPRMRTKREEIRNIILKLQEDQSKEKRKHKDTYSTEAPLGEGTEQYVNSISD
# [3] = target: T4, Sentrin-specific protease 7 (Homo sapiens, UniProt Q9BQF6); experiment: SENP7 protease inhibitors, SAR follow-up, biochemical, luminescence (AID 504497); format: functional
# T4 sequence (Q9BQF6 whole entry): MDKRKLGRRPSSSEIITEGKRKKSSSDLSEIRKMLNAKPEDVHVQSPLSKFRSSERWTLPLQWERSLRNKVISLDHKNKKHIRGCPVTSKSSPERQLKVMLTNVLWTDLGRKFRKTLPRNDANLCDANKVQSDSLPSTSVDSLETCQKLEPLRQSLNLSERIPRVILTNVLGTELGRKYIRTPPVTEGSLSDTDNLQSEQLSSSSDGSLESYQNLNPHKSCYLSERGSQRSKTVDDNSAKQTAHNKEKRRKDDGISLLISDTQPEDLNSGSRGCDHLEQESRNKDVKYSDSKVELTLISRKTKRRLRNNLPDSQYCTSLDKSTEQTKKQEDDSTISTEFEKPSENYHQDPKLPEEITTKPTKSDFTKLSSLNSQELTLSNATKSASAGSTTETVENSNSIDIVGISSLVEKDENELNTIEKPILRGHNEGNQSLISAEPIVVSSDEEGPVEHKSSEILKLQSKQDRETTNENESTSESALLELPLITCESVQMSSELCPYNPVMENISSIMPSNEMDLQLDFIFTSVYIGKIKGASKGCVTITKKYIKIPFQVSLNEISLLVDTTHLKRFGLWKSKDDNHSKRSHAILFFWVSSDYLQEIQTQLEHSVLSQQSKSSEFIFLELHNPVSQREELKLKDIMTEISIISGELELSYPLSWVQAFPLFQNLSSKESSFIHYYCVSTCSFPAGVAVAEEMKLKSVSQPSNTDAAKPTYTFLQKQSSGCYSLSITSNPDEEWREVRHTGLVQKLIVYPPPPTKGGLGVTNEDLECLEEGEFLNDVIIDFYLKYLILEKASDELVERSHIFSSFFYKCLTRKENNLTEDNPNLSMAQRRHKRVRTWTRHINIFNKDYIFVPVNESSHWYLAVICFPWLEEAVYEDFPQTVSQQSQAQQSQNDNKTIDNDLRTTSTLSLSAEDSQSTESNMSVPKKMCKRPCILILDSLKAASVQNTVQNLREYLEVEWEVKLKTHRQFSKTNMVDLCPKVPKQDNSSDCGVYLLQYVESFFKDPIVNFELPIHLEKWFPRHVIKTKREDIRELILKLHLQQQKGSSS
# [4] = target: Cyclin-dependent kinase 5 (Homo sapiens, UniProt Q00535); format: functional;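 note: CDK5 measured as one member of a kinase profiling panel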
# [5] = target: Cyclin-dependent kinase 8 (Homo sapiens, UniProt P49336); experiment: Navigating the Kinome. Panel member name: CDK8; format: functional
# Cytochrome P450 3A4 = Cytochrome P450 3A4 (Homo sapiens, UniProt P08684); details: Potency;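 note: confirmatory qHTS run detecting inhibitors and substrates of CYP3A4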
# [6] = target: Aryl hydrocarbon receptor (Homo sapiens, UniProt P35869); details: Potency;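 note: confirmatory quantitative high-throughput screen measuring activation of the AhR signaling pathway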
# [7] = target: Neuropeptides B/W receptor type 1 (Homo sapiens, UniProt P48145); experiment: GPR7 antagonist potency, late-stage follow-up, cell-based, fluorescence, dose response, set 5 (AID 588566); format: functional
# [8] = target: Melanin-concentrating hormone receptor 1 (Homo sapiens, UniProt Q99705); experiment: Late-stage fluorescence-based counterscreen for antagonists of the G-protein coupled receptor 7 (GPR7): cell-based dose response assay to identify antagonists of the melanin-concentrating hormone receptor 1 (MCHR1) Set 5.; format: functional
# [9] = target: T5, Apoptotic protease-activating factor 1 (Homo sapiens, UniProt O14727); experiment: SAR analysis of small molecule Activators of Apaf-1 in a Fluorescent assay.; format: functional; details: read-out: EC50_Mean;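 note: caspase-3 cleavage of fluorogenic Rh110 DEVD substrate downstream of apoptosome activation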
# T5 sequence (O14727 whole entry): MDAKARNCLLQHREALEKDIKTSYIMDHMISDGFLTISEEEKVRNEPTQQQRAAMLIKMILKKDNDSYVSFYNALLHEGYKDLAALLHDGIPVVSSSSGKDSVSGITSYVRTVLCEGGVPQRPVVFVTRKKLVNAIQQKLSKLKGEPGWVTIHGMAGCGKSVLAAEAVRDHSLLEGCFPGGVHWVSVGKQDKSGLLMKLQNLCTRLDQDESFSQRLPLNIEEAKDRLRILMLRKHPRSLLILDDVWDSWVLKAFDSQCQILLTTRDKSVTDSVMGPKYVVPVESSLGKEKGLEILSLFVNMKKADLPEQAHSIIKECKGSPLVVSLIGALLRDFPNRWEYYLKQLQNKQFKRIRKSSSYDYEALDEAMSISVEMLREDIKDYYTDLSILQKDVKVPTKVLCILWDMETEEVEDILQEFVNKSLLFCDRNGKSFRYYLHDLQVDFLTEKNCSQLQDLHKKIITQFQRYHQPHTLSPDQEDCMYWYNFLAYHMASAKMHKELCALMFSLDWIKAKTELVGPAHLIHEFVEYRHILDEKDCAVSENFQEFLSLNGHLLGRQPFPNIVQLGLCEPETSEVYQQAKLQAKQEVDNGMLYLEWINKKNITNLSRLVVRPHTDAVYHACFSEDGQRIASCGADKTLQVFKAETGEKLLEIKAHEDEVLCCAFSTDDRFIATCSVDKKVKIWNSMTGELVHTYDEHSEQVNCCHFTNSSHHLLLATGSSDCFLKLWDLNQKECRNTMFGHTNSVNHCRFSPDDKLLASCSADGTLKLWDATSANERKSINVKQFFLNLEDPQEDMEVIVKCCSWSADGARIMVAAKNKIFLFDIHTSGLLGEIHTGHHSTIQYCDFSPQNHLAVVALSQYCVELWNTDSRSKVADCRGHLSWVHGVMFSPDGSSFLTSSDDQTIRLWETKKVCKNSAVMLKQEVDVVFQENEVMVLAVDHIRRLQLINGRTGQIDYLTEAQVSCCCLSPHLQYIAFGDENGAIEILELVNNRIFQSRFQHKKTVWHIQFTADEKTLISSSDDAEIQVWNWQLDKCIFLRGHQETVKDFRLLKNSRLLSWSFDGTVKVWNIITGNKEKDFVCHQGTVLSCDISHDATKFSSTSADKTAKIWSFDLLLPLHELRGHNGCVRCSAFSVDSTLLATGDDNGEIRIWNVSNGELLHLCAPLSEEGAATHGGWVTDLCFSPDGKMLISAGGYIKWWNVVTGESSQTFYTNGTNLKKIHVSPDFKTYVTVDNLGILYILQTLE
# [10] = tested on: Streptococcus sp. 'group A'; experiment: growth inhibition of control SK(-) GAS strain, dose response, counter-screen for streptokinase expression inhibitor project, luminescence, kanamycin, BacTiterGlo, confirmation (AID 1900); format: functional, organism-based
# Streptococcus = experiment: Group A Streptococcus viability loss, dose response, counter-screen for streptokinase expression inhibitor project, luminescence, BacTiterGlo (AID 1915); format: functional, organism-based;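 note: potency for reduction of bacterial viability or growth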
# Nonstructural protein 1 = Nonstructural protein 1 (Influenza A virus, UniProt Q194T2); format: functional, Influenza A virus (A/California/07/2009(H1N1))
# [11] = target: 26S proteasome non-ATPase regulatory subunit 14 (Homo sapiens, UniProt O00487); experiment: inhibition of proteasome subunit RPN11 – biochemical, fluorescence polarization, uHTS hits, confirmation (AID 602368); format: functional
# [12] = target: 72 kDa type IV collagenase (Homo sapiens, UniProt P08253); experiment: Dose Response validation of uHTS RPN11 inhibitor hits using a MMP-2 Fluorescence assay.; format: functional
# Prothrombin = Prothrombin (Bos taurus, UniProt P00735); experiment: thrombin inhibition, dose response, biochemical, fluorescence polarization, uHTS hits (AID 602369); format: functional
# [13] = target: Protein disulfide-isomerase (Homo sapiens, UniProt P07237); experiment: PDI inhibitors, insulin aggregation turbidity, dose response, biochemical, absorbance, cherry-picked samples (AID 602350); format: functional
# [14] = target: Dual specificity protein kinase CLK4 (Homo sapiens, UniProt Q9HAZ1); format: functional
# [15] = ARNT/TACC3 interaction disruptors, potency, confirmation, biochemical, AlphaScreen, cherry-picked samples (AID 651703); format: functional, Homo sapiens;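 note: His-tagged ARNT PAS-B domain paired with GST-TACC3 E629A dimer coactivator fragment; potency of inhibitors that break up the complex and lower AlphaScreen signal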
# Chain of Melanin-concentrating hormone receptor 1 (Q99705 whole entry): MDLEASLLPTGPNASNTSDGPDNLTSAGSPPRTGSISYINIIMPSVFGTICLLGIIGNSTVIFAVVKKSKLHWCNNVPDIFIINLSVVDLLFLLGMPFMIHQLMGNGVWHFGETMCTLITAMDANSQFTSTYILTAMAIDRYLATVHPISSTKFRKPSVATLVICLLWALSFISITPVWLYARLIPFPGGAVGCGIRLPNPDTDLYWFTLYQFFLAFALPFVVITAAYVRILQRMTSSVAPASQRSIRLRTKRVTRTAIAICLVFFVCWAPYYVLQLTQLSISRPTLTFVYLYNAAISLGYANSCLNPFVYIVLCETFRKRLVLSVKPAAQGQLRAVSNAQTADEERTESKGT
# Chain of Neuropeptides B/W receptor type 1 (P48145 whole entry): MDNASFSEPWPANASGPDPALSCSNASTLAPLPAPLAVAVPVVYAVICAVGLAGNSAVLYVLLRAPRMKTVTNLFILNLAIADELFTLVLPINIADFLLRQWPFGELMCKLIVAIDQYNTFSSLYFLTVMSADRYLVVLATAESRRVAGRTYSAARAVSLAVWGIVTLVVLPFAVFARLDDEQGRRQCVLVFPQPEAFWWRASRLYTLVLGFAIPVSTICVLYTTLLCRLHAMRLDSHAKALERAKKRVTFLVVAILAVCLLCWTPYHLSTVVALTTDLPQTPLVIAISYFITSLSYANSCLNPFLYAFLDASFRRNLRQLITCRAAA
# Chain of Protein disulfide-isomerase (P07237 whole entry): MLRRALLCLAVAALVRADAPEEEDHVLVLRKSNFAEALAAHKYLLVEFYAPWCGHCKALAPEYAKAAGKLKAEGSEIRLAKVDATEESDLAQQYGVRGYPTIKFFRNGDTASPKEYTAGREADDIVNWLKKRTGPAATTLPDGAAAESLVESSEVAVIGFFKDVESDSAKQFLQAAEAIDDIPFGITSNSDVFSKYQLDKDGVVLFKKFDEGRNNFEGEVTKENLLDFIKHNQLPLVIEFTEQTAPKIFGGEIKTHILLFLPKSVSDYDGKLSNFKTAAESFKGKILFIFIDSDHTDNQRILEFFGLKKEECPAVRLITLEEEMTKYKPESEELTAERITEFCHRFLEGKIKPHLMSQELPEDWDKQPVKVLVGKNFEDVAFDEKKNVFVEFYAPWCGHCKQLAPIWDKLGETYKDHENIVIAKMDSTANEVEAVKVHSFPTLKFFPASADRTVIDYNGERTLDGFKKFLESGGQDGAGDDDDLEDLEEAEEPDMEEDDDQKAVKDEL
# Chain of Cyclin-dependent kinase 8 (P49336 whole entry): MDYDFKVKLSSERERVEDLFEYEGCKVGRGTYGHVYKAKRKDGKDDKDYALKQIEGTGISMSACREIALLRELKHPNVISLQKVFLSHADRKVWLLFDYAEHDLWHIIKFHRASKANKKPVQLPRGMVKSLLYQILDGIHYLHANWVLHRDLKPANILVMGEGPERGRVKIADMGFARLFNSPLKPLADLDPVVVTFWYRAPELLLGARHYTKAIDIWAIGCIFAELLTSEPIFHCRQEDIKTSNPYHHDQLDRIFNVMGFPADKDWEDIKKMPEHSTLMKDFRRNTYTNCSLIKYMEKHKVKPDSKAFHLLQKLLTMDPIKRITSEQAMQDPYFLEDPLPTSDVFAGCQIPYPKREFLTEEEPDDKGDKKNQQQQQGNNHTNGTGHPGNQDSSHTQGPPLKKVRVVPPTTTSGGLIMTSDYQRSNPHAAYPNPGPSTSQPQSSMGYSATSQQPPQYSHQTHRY
# Chain of Cyclin-dependent kinase 5 (Q00535 whole entry): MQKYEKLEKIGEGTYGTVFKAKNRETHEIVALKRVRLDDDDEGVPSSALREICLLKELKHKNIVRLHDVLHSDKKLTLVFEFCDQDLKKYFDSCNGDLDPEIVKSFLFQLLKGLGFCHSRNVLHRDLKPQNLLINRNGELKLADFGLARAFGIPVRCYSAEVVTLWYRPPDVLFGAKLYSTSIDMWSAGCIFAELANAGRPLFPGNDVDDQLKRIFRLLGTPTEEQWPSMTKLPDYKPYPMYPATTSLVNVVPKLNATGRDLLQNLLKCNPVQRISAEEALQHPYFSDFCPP
# Chain of 26S proteasome non-ATPase regulatory subunit 14 (O00487 whole entry): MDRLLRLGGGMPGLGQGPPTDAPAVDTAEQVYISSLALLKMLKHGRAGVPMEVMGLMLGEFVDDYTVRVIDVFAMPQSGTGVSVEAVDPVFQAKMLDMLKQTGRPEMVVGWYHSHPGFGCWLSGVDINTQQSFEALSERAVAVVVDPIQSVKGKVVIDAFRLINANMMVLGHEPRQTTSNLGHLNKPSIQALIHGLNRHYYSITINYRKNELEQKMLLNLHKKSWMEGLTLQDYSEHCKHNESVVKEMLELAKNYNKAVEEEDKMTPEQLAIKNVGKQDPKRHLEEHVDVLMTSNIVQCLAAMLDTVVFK
# Chain of Dual specificity protein kinase CLK4 (Q9HAZ1 whole entry, the tested form may be a part): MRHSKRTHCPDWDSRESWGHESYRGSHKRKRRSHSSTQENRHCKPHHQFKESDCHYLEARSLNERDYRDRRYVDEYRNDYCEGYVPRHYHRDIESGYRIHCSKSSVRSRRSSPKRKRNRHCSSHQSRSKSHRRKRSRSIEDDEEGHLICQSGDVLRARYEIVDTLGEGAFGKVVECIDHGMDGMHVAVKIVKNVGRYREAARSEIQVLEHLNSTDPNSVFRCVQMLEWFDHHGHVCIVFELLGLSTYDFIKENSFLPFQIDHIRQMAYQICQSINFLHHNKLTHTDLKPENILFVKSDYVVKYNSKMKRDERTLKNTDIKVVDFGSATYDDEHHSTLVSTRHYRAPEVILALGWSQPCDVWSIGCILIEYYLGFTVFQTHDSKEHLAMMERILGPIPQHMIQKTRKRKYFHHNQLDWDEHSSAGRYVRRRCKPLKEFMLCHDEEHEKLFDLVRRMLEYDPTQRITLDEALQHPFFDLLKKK
# Chain of 72 kDa type IV collagenase (P08253 whole entry): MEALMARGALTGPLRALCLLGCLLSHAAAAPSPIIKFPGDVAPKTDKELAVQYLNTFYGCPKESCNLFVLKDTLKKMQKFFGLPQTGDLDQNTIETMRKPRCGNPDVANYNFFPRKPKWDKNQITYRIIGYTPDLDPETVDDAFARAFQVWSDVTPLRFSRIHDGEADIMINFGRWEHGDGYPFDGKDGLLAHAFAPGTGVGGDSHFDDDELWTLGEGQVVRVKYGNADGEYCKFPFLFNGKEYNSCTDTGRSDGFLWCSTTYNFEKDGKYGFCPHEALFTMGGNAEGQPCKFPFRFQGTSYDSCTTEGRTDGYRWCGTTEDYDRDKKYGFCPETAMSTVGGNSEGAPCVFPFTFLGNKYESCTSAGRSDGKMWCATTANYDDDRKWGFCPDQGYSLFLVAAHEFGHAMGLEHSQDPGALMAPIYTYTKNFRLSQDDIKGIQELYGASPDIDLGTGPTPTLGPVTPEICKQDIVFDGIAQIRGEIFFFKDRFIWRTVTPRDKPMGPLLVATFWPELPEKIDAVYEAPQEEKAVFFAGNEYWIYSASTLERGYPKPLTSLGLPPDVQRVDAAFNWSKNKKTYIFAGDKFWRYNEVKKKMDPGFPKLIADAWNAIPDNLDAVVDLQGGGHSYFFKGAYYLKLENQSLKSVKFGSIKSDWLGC
# Chain of Nonstructural protein 1 (Q194T2 whole entry): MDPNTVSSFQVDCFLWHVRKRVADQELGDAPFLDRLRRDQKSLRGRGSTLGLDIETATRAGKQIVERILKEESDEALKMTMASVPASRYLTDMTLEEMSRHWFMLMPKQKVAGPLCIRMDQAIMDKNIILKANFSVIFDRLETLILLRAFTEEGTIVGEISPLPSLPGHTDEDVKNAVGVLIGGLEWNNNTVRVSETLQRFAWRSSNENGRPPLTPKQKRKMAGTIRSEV
# Chain of Cytochrome P450 3A4 (P08684 whole entry): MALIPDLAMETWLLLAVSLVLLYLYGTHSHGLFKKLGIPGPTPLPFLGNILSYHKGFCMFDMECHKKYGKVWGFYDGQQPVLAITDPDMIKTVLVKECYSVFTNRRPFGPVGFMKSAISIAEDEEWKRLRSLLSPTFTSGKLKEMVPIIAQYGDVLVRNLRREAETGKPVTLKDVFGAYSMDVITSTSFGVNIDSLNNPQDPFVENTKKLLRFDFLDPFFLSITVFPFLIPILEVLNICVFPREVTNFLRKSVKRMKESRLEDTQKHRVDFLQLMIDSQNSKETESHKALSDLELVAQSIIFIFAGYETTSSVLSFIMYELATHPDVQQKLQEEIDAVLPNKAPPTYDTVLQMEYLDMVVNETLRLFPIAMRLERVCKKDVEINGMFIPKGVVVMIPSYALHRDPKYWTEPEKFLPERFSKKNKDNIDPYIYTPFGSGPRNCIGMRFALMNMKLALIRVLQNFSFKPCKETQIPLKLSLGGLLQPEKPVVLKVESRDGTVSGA
smiles,measurement,setting,value
COc1cc2cc(NC(C)=O)cc(NCCCO)c2cc1OC,IC50,[1],56 µM (active)
same,IC50,Caspase-3,37.7 µM (active)
same,IC50,[2],16.9 µM (active)
same,IC50,[3],29.3 µM (active)
C=C1c2ccccc2CC(CCN(C)C)c2ccccc21 (stereo not drawn),Ki,[4],3.16 µM (active)
same,Ki,[5],1.26 µM (active)
COc1cccc2sc(N)nc12,AC50,Cytochrome P450 3A4,15.8 µM (inconclusive)
same,AC50,[6],50.1 µM (inconclusive)
N#Cc1ccccc1C(C#N)c1c(Cl)cnn(Cc2cccc3ccccc23)c1=O (stereo not drawn),IC50,[7],0.782 µM (active)
same,IC50,[8],9.7 µM (active)
CC(Nc1ccccc1)C(=O)O (stereo not drawn),EC50,[9],> 100 µM (inactive)
O=c1c(Oc2ccc3cc[nH]c3c2)c(Cl)cnn1Cc1cccc2ccccc12,IC50,[7],1.01 µM (active)
same,IC50,[8],18.6 µM (inactive)
O=[N+]([O-])c1ccc(O)c(/N=C/c2sc3ccccc3c2O)c1,EC50,[10],5.2 µM (active)
same,EC50,Streptococcus,9.08 µM (active)
same,IC50,Nonstructural protein 1,> 100 µM (active)
same,IC50,[11],3.28 µM (active)
same,IC50,[12],> 100 µM (inactive)
same,IC50,Prothrombin,2.57 µM (active)
CC(C)CC(=O)Nc1ccc2nc(NC(=O)c3ccccc3)sc2c1,IC50,[1],6.63 µM (active)
same,IC50,Caspase-3,7.24 µM (active)
same,IC50,[2],6.09 µM (active)
same,IC50,[3],3.07 µM (active)
C[C@H](CO)N1C[C@H](C)[C@@H](CN(C)Cc2ccc(Oc3ccccc3)cc2)Oc2c(NS(C)(=O)=O)cccc2C1=O,AC50,[13],19.5 µM (active)
COc1ccc(CCN(C)C(=O)CCc2ccc(Cl)c(Cl)c2)cc1OC,Ki,[5],2.51 µM (active)
same,Ki,[14],2 µM (active)
O=C1NC[C@H](Cc2ccc(O)cc2)N(CC2CCCCC2)C1=O,AC50,[13],19.5 µM (active)
Cn1c(-c2ccccc2)cnc1NC(=O)c1cc(-c2ccccc2)on1,AC50,[15],117 µM (active)
